Legend:
[1] = target: T1, ALPK1 (Homo sapiens, UniProt Q96QP1); test: NF-kB promoter driven alkaline phosphatase reporter in HEK293 cells (pNPP assay); type: cell-based; settings: HEK293-NFkB-AP reporter cells treated 7 hours
T1 construct: endogenous in cells; host or cells: HEK293 (A1); HEK293 stably expressing an NF-kB-alkaline phosphatase reporter (A2)
Description: NF-kB activation was assayed using HEK293 cells stably expressing an NF-kB reporter construct comprising an NF-kB promoter driving expression of alkaline phosphatase (AP). In this system, activation of NF-kB promoter activity drives the expression of AP which is detected using a chromogenic substrate, para-nitrophenyl phosphate (pNPP).
To assess the ALPK1 agonist activity of test compounds, the HEK293 cells were seeded in 96-well plates and allowed to attach overnight. Cells were then exposed to graded concentrations of compounds A1, A2, A3, A4, A18, A26, A27, A28, and A30. Compound 28 was included as a reference. Following treatment, cell culture supernatants were collected and analyzed for alkaline phosphatase activity using the pNPP assay. The results are shown in FIGS. 7A-7B and Table 2B-C below. The EC50 for each compound was determined using GraphPad Prism.

[2] = target: T1, ALPK1; test: IL-8 secretion by HEK293 cells (IL-8 ELISA) as indication of ALPK1 activation; type: cell-based; settings: HEK293 cells treated 4 hours, FIG. 6, Table 2A
Description: HEK293 cells were treated with H1b-ADP derivatives (A1, A2, A3, and A4) or with Compound 28 for 4 hours followed by analysis of IL-8 secretion using an IL-8 enzyme linked immunoassay (ELISA). IL-8 secretion is an indication of ALPK1 activation. The EC50 of each compound was determined using GraphPad Prism.

T1 sequence (Q96QP1 whole entry): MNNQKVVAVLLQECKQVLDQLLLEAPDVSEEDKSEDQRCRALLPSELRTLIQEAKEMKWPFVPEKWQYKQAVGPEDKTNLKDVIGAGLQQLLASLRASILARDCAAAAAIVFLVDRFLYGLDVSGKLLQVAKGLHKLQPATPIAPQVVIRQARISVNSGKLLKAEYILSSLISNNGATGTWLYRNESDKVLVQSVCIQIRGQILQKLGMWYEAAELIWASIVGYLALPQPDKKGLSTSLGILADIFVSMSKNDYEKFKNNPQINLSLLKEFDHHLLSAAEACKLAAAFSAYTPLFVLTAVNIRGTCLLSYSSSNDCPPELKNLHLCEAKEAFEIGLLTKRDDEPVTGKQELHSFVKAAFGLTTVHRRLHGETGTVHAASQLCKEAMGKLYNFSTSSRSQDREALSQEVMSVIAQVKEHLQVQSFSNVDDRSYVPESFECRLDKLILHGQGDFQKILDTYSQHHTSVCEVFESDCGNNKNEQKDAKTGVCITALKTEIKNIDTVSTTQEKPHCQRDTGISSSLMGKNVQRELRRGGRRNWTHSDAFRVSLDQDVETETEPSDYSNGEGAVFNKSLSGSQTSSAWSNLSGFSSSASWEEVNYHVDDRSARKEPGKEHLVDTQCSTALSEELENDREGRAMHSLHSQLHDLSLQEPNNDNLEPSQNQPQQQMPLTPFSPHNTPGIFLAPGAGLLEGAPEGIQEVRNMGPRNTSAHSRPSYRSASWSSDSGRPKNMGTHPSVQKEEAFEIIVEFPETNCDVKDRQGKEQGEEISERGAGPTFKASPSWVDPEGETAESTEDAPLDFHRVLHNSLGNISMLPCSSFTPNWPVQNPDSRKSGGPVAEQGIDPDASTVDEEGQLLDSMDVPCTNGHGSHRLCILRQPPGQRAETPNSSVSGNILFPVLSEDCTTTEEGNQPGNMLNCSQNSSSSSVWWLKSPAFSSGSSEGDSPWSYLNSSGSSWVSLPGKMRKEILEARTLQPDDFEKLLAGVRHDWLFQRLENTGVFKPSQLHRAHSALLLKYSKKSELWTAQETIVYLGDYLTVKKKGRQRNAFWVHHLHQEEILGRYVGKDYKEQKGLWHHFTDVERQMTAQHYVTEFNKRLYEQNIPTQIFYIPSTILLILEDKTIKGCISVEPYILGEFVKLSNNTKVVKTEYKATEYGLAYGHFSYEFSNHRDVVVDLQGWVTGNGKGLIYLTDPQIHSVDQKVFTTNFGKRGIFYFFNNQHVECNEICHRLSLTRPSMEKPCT

SMILES | EC50 ([1]; FIG. 7A, Table 2B) | EC50 [2] | EC50 ([1]; FIG. 7B, Table 2C)
CCCCCCCCCCCCCCCCCC(=O)OC[C@H](F)[C@H]1O[C@@H](OP(=O)(O)OP(O)(=S)OC[C@H]2O[C@@H](n3cnc4c(N)ncnc43)[C@H](O)[C@@H]2O)[C@@H](OC(C)=O)[C@@H](OC(C)=O)[C@@H]1OC(C)=O (stereo partly drawn) [Compound A1, (2S,3S,4S,5S,6S)-2-(((((((2R,3S,4R,5R)-5-(6-amino-9H-purin-9-yl)-3,4-dihydroxytetrahydrofuran-2-yl)methoxy)(hydroxy)phosphorothioyl)oxy)(hydroxy)phosphoryl)oxy)-6-((S)-1-fluoro-2-(stearoyloxy)ethyl)tetrahydro-2H-pyran-3,4,5-triyl triacetate] | 11 nM | 3.1 nM | 
CC(=O)OC[C@H](F)[C@H]1O[C@@H](OP(=O)(O)OP(O)(=S)OC[C@H]2O[C@@H](c3coc4c(N)ncnc34)[C@H](O)[C@@H]2O)[C@@H](OC(C)=O)[C@@H](OC(C)=O)[C@@H]1OC(C)=O (stereo partly drawn) [Compound A28, (2S,3S,4S,5S,6S)-2-((S)-2-acetoxy-1-fluoroethyl)-6-(((((((2R,3S,4R,5S)-5-(4-aminofuro[3,2-d]pyrimidin-7-yl)-3,4-dihydroxytetrahydrofuran-2-yl)methoxy)(hydroxy)phosphorothioyl)oxy)(hydroxy)phosphoryl)oxy)tetrahydro-2H-pyran-3,4,5-triyl triacetate] |  |  | 3.9 nM
CCCCCCCCC(=O)OC[C@H](F)C1O[C@@H](OP(=O)(O)OP(O)(=S)OC[C@H]2O[C@@H](n3cnc4c(N)ncnc43)C(O)C2O)C(OC(C)=O)C(OC(C)=O)[C@@H]1OC(C)=O (stereo partly drawn) [Compound A4, (2S,3S,4S,5S,6S)-2-(((((((2R,3S,4R,5R)-5-(6-amino-9H-purin-9-yl)-3,4-dihydroxytetrahydrofuran-2-yl)methoxy)(hydroxy)phosphorothioyl)oxy)(hydroxy)phosphoryl)oxy)-6-((S)-1-fluoro-2-(nonanoyloxy)ethyl)tetrahydro-2H-pyran-3,4,5-triyl triacetate] | 19.1 nM | 19.2 nM | 
CCCCCCCCCCCCCC(=O)OC[C@H](F)C1O[C@@H](OP(=O)(O)OP(O)(=S)OC[C@H]2O[C@@H](n3cnc4c(N)ncnc43)C(O)C2O)C(OC(C)=O)C(OC(C)=O)[C@@H]1OC(C)=O (stereo partly drawn) [Compound A3, (2S,3S,4S,5S,6S)-2-(((((((2R,3S,4R,5R)-5-(6-amino-9H-purin-9-yl)-3,4-dihydroxytetrahydrofuran-2-yl)methoxy)(hydroxy)phosphorothioyl)oxy)(hydroxy)phosphoryl)oxy)-6-((S)-1-fluoro-2-(tetradecanoyloxy)ethyl)tetrahydro-2H-pyran-3,4,5-triyl triacetate] | 3.9 nM | 2 nM | 
CCCCCCCCCCCC(=O)OC[C@H](F)C1O[C@@H](OP(=O)(O)OP(O)(=S)OC[C@H]2O[C@@H](n3cnc4c(N)ncnc43)C(O)C2O)C(OC(C)=O)C(OC(C)=O)[C@@H]1OC(C)=O (stereo in doubt) [Compound A2, 2S,3S,4S,5S,6S)-2-(((((((2R,3S,4R,5R)-5-(6-amino-9H-purin-9-yl)-3,4-dihydroxytetrahydrofuran-2-yl)methoxy)(hydroxy)phosphorothioyl)oxy)(hydroxy)phosphoryl)oxy)-6-((S)-2-(dodecanoyloxy)-1-fluoroethyl)tetrahydro-2H-pyran-3,4,5-triyl triacetate] | 11.9 nM | 7.1 nM | 
CC(=O)OC[C@H](F)C1O[C@@H](OP(=O)(O)OP(O)(=S)OC[C@H]2O[C@@H](n3cnc4c(NC(=O)c5ccccc5)ncnc43)C(O)C2O)C(OC(C)=O)C(OC(C)=O)[C@@H]1OC(C)=O (stereo partly drawn) [Compound A27, (2S,3S,4S,5S,6S)-2-((S)-2-acetoxy-1-fluoroethyl)-6-(((((((2R,3S,4R,5R)-5-(6-benzamido-9H-purin-9-yl)-3,4-dihydroxytetrahydrofuran-2-yl)methoxy)(hydroxy)phosphorothioyl)oxy)(hydroxy)phosphoryl)oxy)tetrahydro-2H-pyran-3,4,5-triyl triacetate] |  |  | 37.8 nM
CC(=O)OC[C@H](F)[C@H]1O[C@@H](OP(=O)(O)OP(O)(=S)OC[C@H]2O[C@@H](c3csc(C(N)=O)c3N)[C@H](O)[C@@H]2O)[C@@H](OC(C)=O)[C@@H](OC(C)=O)[C@@H]1OC(C)=O (stereo partly drawn) [Compound A30, (2S,3S,4S,5S,6S)-2-((S)-2-acetoxy-1-fluoroethyl)-6-(((((((2R,3S,4R,5S)-5-(4-amino-5-carbamoylthiophen-3-yl)-3,4-dihydroxytetrahydrofuran-2-yl)methoxy)(hydroxy)phosphorothioyl)oxy)(hydroxy)phosphoryl)oxy)tetrahydro-2H-pyran-3,4,5-triyl triacetate] |  |  | 42.3 nM
CC(=O)OC[C@H](F)[C@H]1O[C@@H](OP(=O)(O)OP(O)(=S)OC[C@H]2O[C@@H](n3ncc4c(N)ncnc43)[C@H](O)[C@@H]2O)[C@@H](OC(C)=O)[C@@H](OC(C)=O)[C@@H]1OC(C)=O (stereo partly drawn) [Compound A26, (2S,3S,4S,5S,6S)-2-((S)-2-acetoxy-1-fluoroethyl)-6-(((((((2R,3S,4R,5R)-5-(4-amino-1H-pyrazolo[3,4-d]pyrimidin-1-yl)-3,4-dihydroxytetrahydrofuran-2-yl)methoxy)(hydroxy)phosphorothioyl)oxy)(hydroxy)phosphoryl)oxy)tetrahydro-2H-pyran-3,4,5-triyl triacetate] |  |  | 10100 nM

Reference: patent publication US20220177510A1, “DERIVATIVES OF GYLCERO-MANNO-HEPTOSE ADP FOR USE IN MODULATING IMMUNE RESPONSE” (priority 2019, published 2022)
